# Assay results from patent US4966894A, “Polysulfated heparins for treating diseases caused by retroviruses” (BASF Aktiengesellschaft, priority 1987, dated 1990).
# Columns and labels:
# [1] = test system: reverse transcriptase from HIV I; assay: Enzyme test with reverse transcriptase from HIV I; assay type: biochemical; details: 50 μg/ml substance; 120 minutes at 37° C.; poly(rA)/oligo(dT)15 matrix, 3H-dTTP
# Experimental: I. Enzyme test with reverse transcriptase from HIV I
# In the model system described below, the activity of the reverse transcriptase is determined in the presence of an inhibitor, essentially according to Hansen et al. (J. Biol. Chem. 262 [1987], 12393).
# The enzyme test has a total volume of 50 μl and contains the following components: 50 mM tris-HCl pH 7.8, 80 mM KCl, 8 mM MgCl2 and 1 mM DTT. This system contains the synthetic polymer poly(rA)/oligo (dT)15 (Boehringer Mannheim) as a matrix, in a concentration of 1 mg/ml. This matrix consists of a synthetic RNA having a length of 100-200 nucleotides,to which short DNA primers having a length of 15 nucleotides are bonded. The DNA primers serve as starting points for the reverse transcriptase. […]
# The DNA bound to the exchanger is dried under an infrared lamp, after which the activity is determined by liquid scintillation measurement. The unspecific background is the radioactivity bound to the DEAE filter in the absence of reverse transcriptase in the method described above. […]
# The activity of the reverse transcriptase in the presence of a potential inhibitor is expressed as a percentage of the activity in the absence of an inhibitor; or the inhibitory action of a substance (%) is defined as 100% minus the activity in percent.
# [2] = test system: reverse transcriptase from HIV I; details: literature and own experiments, cf. Table 1; cited from earlier work
# HIV = details: Antiviral Res. 7 [1987], 361; cited from earlier work
# [3] = test system: reverse transcriptase of Schmidt-Ruppin D (SR-D) virus; details: German Laid-Open Application DOS No. 3,601,136; cited from earlier work
# [4] = background statement; may induce hemorrhages; cited from earlier work
Substance,Inhibition % [1] [%],inhibitory action on reverse transcriptase of HIV I (in words) [2],inhibition of HIV replication in vitro (HIV),inhibition of reverse transcriptase of SR-D virus [3],anticoagulant properties [4]
heparin [Unfractionated heparin],0,–,–,–,–
heparin [Commercial heparin],–,"could not, however, be confirmed",selective inhibitor of HIV replication in vitro,inhibits reverse transcriptase,has anticoagulant properties
